Data as given in ChEMBL document CHEMBL4627376, “Substituted benzyloxytricyclic compounds as retinoic acid-related orphan receptor gamma t (RORγt) agonists” (Bioorg Med Chem Lett, 2020).

Columns and labels:
[1] = Stability in rat liver microsomes assessed as parent compound remaining at 0.5 uM in presence of NADPH by MS/MS analysis; type: ADME, Microsome; details: read-out: Stability
[2] = Stability in human liver microsomes assessed as parent compound remaining at 0.5 uM in presence of NADPH by MS/MS analysis; type: ADME, Microsome; details: read-out: Stability
[3] = Stability in mouse liver microsomes assessed as parent compound remaining at 0.5 uM in presence of NADPH by MS/MS analysis; type: ADME, Microsome; details: read-out: Stability
[4] = Permeability of compound at pH 7.4; type: ADME; details: not told, read-out: permeability
[5] = Volume of distribution at steady state in C57BL6 mouse at 2 mg/kg, iv qd administered as bolus dose after 24 hrs by LC-MS/MS analysis; type: ADME, organism-based; details: in vivo, read-out: Vdss
[6] = Drug level in mouse MC38 cells allografted C57BL6 mouse blood at 10 mg/kg, po BID and measured after 24 hrs; type: ADME, organism-based; details: whole blood, read-out: Drug uptake
[7] = Cmax in C57BL6 mouse at 30 mg/kg, po qd via gavage after 24 hrs by LC-MS/MS analysis; type: ADME, organism-based; parameters: dose 30 mg/kg, route oral; details: in vivo
[8] = AUC in C57BL6 mouse at 30 mg/kg, po qd via gavage after 24 hrs by LC-MS/MS analysis; type: ADME, organism-based; parameters: time < 24 hr, dose 30 mg/kg, route oral; details: in vivo
[9] = biological target: T1, Nuclear receptor ROR-gamma (Mus musculus, UniProt P51450); experiment: Agonist activity at RORgammat in mouse whole blood assessed as induction of IL-17A expression; type: tissue-based
T1 sequence (P51450 whole entry): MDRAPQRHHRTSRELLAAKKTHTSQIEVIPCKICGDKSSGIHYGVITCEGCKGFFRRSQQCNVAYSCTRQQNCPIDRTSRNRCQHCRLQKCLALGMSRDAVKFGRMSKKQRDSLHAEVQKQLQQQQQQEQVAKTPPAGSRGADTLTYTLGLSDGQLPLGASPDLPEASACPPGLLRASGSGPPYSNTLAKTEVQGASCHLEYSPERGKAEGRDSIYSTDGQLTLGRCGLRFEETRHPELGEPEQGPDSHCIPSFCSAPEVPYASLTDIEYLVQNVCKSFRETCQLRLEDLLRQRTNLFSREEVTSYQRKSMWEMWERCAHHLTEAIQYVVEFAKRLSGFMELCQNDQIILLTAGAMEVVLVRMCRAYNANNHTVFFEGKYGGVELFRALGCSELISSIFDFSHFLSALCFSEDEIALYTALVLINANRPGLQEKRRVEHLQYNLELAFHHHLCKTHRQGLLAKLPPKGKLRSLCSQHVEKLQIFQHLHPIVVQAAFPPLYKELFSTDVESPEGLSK

[10] = Tmax in C57BL6 mouse at 30 mg/kg, po qd via gavage after 24 hrs by LC-MS/MS analysis; type: ADME, organism-based; details: in vivo
[11] = AUC in C57BL6 mouse at 2 mg/kg, iv qd administered as bolus dose after 24 hrs by LC-MS/MS analysis; type: ADME, organism-based; parameters: time < 24 hr, dose 2 mg/kg, route intravenous; details: in vivo
[12] = Clearance in C57BL6 mouse at 2 mg/kg, iv qd administered as bolus dose after 24 hrs by LC-MS/MS analysis; type: ADME, organism-based; details: in vivo
[13] = Half life in mouse hepatocytes; type: ADME, cell-based, Hepatocyte
[14] = Drug metabolism in mouse hepatocytes assessed as UGT-mediated metabolism by measuring half life; type: ADME, cell-based

| remaining at 0.5 µM [1] | remaining at 0.5 µM [2] | remaining at 0.5 µM [3] | also measured | SMILES |
| --- | --- | --- | --- | --- |
| 30% | 2% | 41% | – | CS(=O)(=O)N[C@H]1CC[C@H](C(=O)N2CC[C@@]3(S(=O)(=O)c4ccc(F)cc4)c4ccc(OCc5c(F)cccc5C(F)(F)F)cc4CC[C@@H]23)CC1 |
| 4% | 1% | 51% | – | O=C(N1CC[C@@]2(S(=O)(=O)c3ccc(F)cc3)c3ccc(OCc4c(F)cccc4C(F)(F)F)cc3CC[C@@H]12)C1(O)CCS(=O)(=O)CC1 |
| 39% | 17% | – | – | NC(=O)[C@H]1CC[C@H](C(=O)N2CC[C@@]3(S(=O)(=O)c4ccc(F)cc4)c4ccc(OCc5c(F)cccc5C(F)(F)F)cc4CC[C@@H]23)CC1 |
| 48% | 80% | 100% | Papp [4]: 406 nm/s; Vd [5]: 1.1 L/kg; concentration at 24 h [6]: 0.1 µM; Cmax [7]: 61 µM; AUC at 24 h [8]: 275 µM·h; EC50 [9]: 0.38 µM; Tmax [10]: 0.5 h; AUC at 24 h [11]: 6.5 µM·h; clearance [12]: 0.402 L/h/kg | C[C@]1(C(=O)N2CC[C@@]3(S(=O)(=O)c4ccc(F)cc4)c4ccc(OCc5c(F)cccc5C(F)(F)F)cc4CC[C@@H]23)CC[C@H](C(=O)O)CC1 |
| 33% | 3% | 57% | – | NC(=O)N1CCC(C(=O)N2CC[C@@]3(S(=O)(=O)c4ccc(F)cc4)c4ccc(OCc5c(F)cccc5C(F)(F)F)cc4CC[C@@H]23)CC1 |
| 67% | 55% | 82% | – | O=C([C@H]1CC[C@H](c2nnn[nH]2)CC1)N1CC[C@@]2(S(=O)(=O)c3ccc(F)cc3)c3ccc(OCc4c(F)cccc4C(F)(F)F)cc3CC[C@@H]12 |
| 65% | 97% | 100% | Papp [4]: 101 nm/s; Vd [5]: 1.8 L/kg; Cmax [7]: 38 µM; half-life [13]: > 2 h; AUC at 24 h [8]: 103 µM·h; Tmax [10]: 1 h; half-life [14]: > 2 h; AUC at 24 h [11]: 5.4 µM·h; clearance [12]: 0.546 L/h/kg | O=C(O)[C@H]1CC[C@H](C(=O)N2CC[C@@]3(S(=O)(=O)c4ccc(F)cc4)c4ccc(OCc5c(F)cccc5C(F)(F)F)cc4CC[C@@H]23)CC1 |
| 14% | 1% | 14% | – | O=C(CN1CCS(=O)(=O)CC1)N1CC[C@@]2(S(=O)(=O)c3ccc(F)cc3)c3ccc(OCc4c(F)cccc4C(F)(F)F)cc3CC[C@@H]12 |
| 18% | 1% | 52% | – | O=C(C1CCS(=O)(=O)CC1)N1CC[C@@]2(S(=O)(=O)c3ccc(F)cc3)c3ccc(OCc4c(F)cccc4C(F)(F)F)cc3CC[C@@H]12 |
